According to ChEMBL document CHEMBL1126328, “The rotenoid core structure: Modifications to define the requirements of the toxophore” (Bioorg Med Chem Lett, 1992):

Legend:
Phormia regina = test: Relative activity against blowfly flight muscle submitochondrial NADH dehydrogenase compared to rotenone; settings: Muscle tissue
[1] = Inhibition of NADH dehydrogenase in blowfly flight-muscle submitochondrial preparation experiment II; design: species or system Phormia regina, Muscle tissue
[2] = Inhibition of NADH dehydrogenase in blowfly flight-muscle submitochondrial preparation experiment I; assay type: tissue-based, Phormia regina, Muscle tissue
[3] = Inhibition of NADH dehydrogenase in blowfly flight-muscle submitochondrial preparation; assay type: tissue-based, Muscle tissue

Structure (SMILES) | Relative activity (Phormia regina) | IC50 [1] | IC50 [2] | IC50 [3]
C=C(C)[C@H]1CC2=C(Cc3ccc4c(c3C2)O[C@@H]2COc3cc(OC)c(OC)cc3[C@@H]2C4=O)O1 | 100% | 1.5 nM | 0.25 nM | 
COc1cc2c(cc1OC)[C@H]1[C@H](O)c3ccc4c(c3O[C@@H]1CO2)Cc1cc(C(C)C)oc1C4 | 0.063% |  |  | 400 nM
COc1ccc2c(c1)O[C@@H]1COc3ccccc3[C@@H]1C2=O | 0.0031% |  |  | 8000 nM
O=C1c2ccccc2O[C@@H]2COc3ccccc3[C@H]12 | 0.005% |  |  | 5000 nM
O=C1c2ccccc2O[C@@H]2CSc3ccccc3[C@H]12 | 0.0025% |  |  | 10000 nM
COc1ccc2c(c1)O[C@@H]1COc3cc(OC)c(OC)cc3[C@@H]1C2=O [MUNDOSERONE] | 1.67% |  |  | 15 nM

Next, values leading:

Relative activity (Phormia regina) | IC50 [1] | IC50 [2] | IC50 [3] | Structure (SMILES)
30% |  |  | 5 nM | COc1cc2c(cc1OC)[C@H]1C(=O)c3ccc4c(c3O[C@@H]1CO2)Cc1cc(C(C)C)oc1C4
0.125% |  |  | 200 nM | COc1cc2c(cc1OC)[C@@H]1C(=O)c3ccccc3O[C@@H]1CO2
1% |  |  | 25 nM | COc1cc2c(cc1OC)[C@@H]1[C@H](O)c3ccc4c(c3O[C@@H]1CO2)Cc1cc(C(C)C)oc1C4
0.083% |  |  | 300 nM | COc1cc2c(cc1OC)[C@@H]1C(=O)c3ccccc3O[C@@H]1CS2
50% |  |  | 0.5 nM | C=C(C)[C@H]1CC2=C(Cc3ccc4c(c3C2)O[C@@H]2COc3cc(OC)c(OC)cc3[C@H]2C4=O)O1
75% |  |  | 2 nM | COc1cc2c(cc1OC)[C@@H]1C(=O)c3ccc4c(c3O[C@@H]1CO2)Cc1cc(C(C)C)oc1C4
